“And” between values parts separate entries of the source, which are not always exact repeats. Equal values may be shown once. Inconclusive results and toxic doses are left out.
System: CD2F1 mice, L1210 leukemia ip, survival T/C
Assay: NCI In Vivo Anticancer Drug Screen. Data for tumor model L1210 Leukemia (intraperitoneal) in CD2F1 (CDF1) mice
Settings: higher = longer survival
Outline: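 Ratio T/C, where T is the treated-group value and C the vehicle-dosed control value, from mice implanted with a transplantable tumor.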

[1] = endpoint: mean survival time, dose: 75.0 mg/kg/injection, schedule: Q01DX001 (ip), vehicle: saline
[2] = endpoint: mean survival time, dose: 75.0 mg/kg/injection, schedule: Q01DX001 (ip), vehicle: saline with Tween-80
[3] = endpoint: mean survival time, dose: 150.0 mg/kg/injection, schedule: Q01DX001 (ip), vehicle: saline with Tween-80
[4] = endpoint: mean survival time, dose: 100.0 mg/kg/injection, schedule: Q01DX001 (ip), vehicle: saline
[5] = endpoint: mean survival time, dose: 200.0 mg/kg/injection, schedule: Q01DX001 (ip), vehicle: saline
[6] = endpoint: mean survival time, dose: 100.0 mg/kg/injection, schedule: Q04DX002 (ip), vehicle: saline with Tween-80
[7] = endpoint: mean survival time, dose: 200.0 mg/kg/injection, schedule: Q04DX002 (ip), vehicle: saline with Tween-80
[8] = endpoint: mean survival time, dose: 400.0 mg/kg/injection, schedule: Q04DX002 (ip), vehicle: saline with Tween-80
[9] = endpoint: mean survival time, dose: 100.0 mg/kg/injection, schedule: Q04DX003 (ip), vehicle: saline with Tween-80

## O=c1nc(NCC2CCCO2)ccn1C1OC(CO)C(O)C1O (stereo not drawn)
endpoint: median survival time, dose: 12.5 mg/kg/injection, schedule: Q01DX005 (ip), vehicle: water
  T/C: 101 % of control
endpoint: median survival time, dose: 25.0 mg/kg/injection, schedule: Q01DX005 (ip), vehicle: water
  T/C: 101 % of control
endpoint: median survival time, dose: 50.0 mg/kg/injection, schedule: Q01DX005 (ip), vehicle: water
  T/C: 101 % of control
endpoint: median survival time, dose: 100.0 mg/kg/injection, schedule: Q01DX005 (ip), vehicle: water
  T/C: 97 % of control
endpoint: median survival time, dose: 200.0 mg/kg/injection, schedule: Q01DX005 (ip), vehicle: water
  T/C: 98 % of control

## C=CCC(c1ccccc1)(c1ccccc1)c1ccccc1
[1]
  T/C: 93 % of control
endpoint: mean survival time, dose: 150.0 mg/kg/injection, schedule: Q01DX001 (ip), vehicle: saline
  T/C: 95 % of control
endpoint: mean survival time, dose: 300.0 mg/kg/injection, schedule: Q01DX001 (ip), vehicle: saline
  T/C: 97 % of control

## CC1SC(C)SC(C)S1 (stereo not drawn)
[2]
  T/C: 98 % of control
[3]
  T/C: 98 % of control
endpoint: mean survival time, dose: 300.0 mg/kg/injection, schedule: Q01DX001 (ip), vehicle: saline with Tween-80
  T/C: 102 % of control

## CC[As](=O)(O)c1ccc([N+](=O)[O-])cc1
endpoint: mean survival time, dose: 25.0 mg/kg/injection, schedule: Q01DX001 (ip), vehicle: saline with Tween-80
  T/C: 98 % of control
endpoint: mean survival time, dose: 50.0 mg/kg/injection, schedule: Q01DX001 (ip), vehicle: saline with Tween-80
  T/C: 96 % of control

## C[n+]1ccn(Cc2ccc([N+](=O)[O-])cc2)c1
[4]
  T/C: 100 % of control
[5]
  T/C: 101 % of control

## O=P(OCC(F)(F)F)(OCC(F)(F)F)OCC(F)(F)F
[6]
  T/C: 98 % of control
[7]
  T/C: 102 % of control
[8]
  T/C: 105 % of control

## CC(C)(C)OC(=O)NC(CSC(c1ccccc1)(c1ccccc1)c1ccccc1)C(=O)O (stereo not drawn)
[1]
  T/C: 93 % of control

## Cc1ccc(C(C)C)c(OCCCBr)c1
endpoint: mean survival time, dose: 25.0 mg/kg/injection, schedule: Q04DX003 (ip), vehicle: saline with Tween-80
  T/C: 101 % of control
endpoint: mean survival time, dose: 50.0 mg/kg/injection, schedule: Q04DX003 (ip), vehicle: saline with Tween-80
  T/C: 95 % of control
[9]
  T/C: 94 % of control and 95 % of control

## COC(=O)C#CC(N)=O
endpoint: mean survival time, dose: 1.25 mg/kg/injection, schedule: Q01DX009 (ip), vehicle: saline sonified
  T/C: 106 % of control
endpoint: mean survival time, dose: 2.5 mg/kg/injection, schedule: Q01DX009 (ip), vehicle: saline sonified
  T/C: 109 % of control
endpoint: mean survival time, dose: 5.0 mg/kg/injection, schedule: Q01DX009 (ip), vehicle: saline sonified
  T/C: 113 % of control
endpoint: mean survival time, dose: 5.0 mg/kg/injection, schedule: Q04DX003 (ip), vehicle: saline sonified
  T/C: 110 % of control

## O=S(=O)(Cc1ccc(CS(=O)(=O)c2ccc(Cl)cc2)cc1)c1ccc(Cl)cc1
endpoint: mean survival time, dose: 12.5 mg/kg/injection, schedule: Q01DX009 (ip), vehicle: saline with Tween-80
  T/C: 91 % of control
endpoint: mean survival time, dose: 25.0 mg/kg/injection, schedule: Q01DX009 (ip), vehicle: saline with Tween-80
  T/C: 90 % of control
endpoint: mean survival time, dose: 50.0 mg/kg/injection, schedule: Q01DX009 (ip), vehicle: saline with Tween-80
  T/C: 91 % of control

## c1ccc2c(c1)[nH]c1nc3ncncc3nc12
endpoint: mean survival time, dose: 100.0 mg/kg/injection, schedule: Q01DX009 (ip), vehicle: saline
  T/C: 98 % of control
endpoint: mean survival time, dose: 200.0 mg/kg/injection, schedule: Q01DX009 (ip), vehicle: saline
  T/C: 104 % of control
endpoint: mean survival time, dose: 400.0 mg/kg/injection, schedule: Q01DX009 (ip), vehicle: saline
  T/C: 112 % of control

## COc1c(C)c2c(c(OC(C)=O)c1CC(=O)O)C(=O)OC2
[6]
  T/C: 108 % of control
[7]
  T/C: 100 % of control
[8]
  T/C: 100 % of control

## C/C(CCc1cnc2ccccc2c1)=N/NC(N)=O
[6]
  T/C: 96 % of control
[7]
  T/C: 88 % of control
[8]
  T/C: 103 % of control

## O=S(=O)(O)O.[NH-]CC(=O)O.[NH-]CC(=O)O.[NH-]CC(=O)O.[NH-]CC(=O)O.[Pt+2].[Pt+2]
endpoint: mean survival time, dose: 3.13 mg/kg/injection, schedule: Q04DX003 (ip), vehicle: distilled water + Tween-80
  T/C: 101 % of control
endpoint: mean survival time, dose: 6.25 mg/kg/injection, schedule: Q04DX003 (ip), vehicle: distilled water + Tween-80
  T/C: 104 % of control
endpoint: mean survival time, dose: 12.5 mg/kg/injection, schedule: Q04DX003 (ip), vehicle: distilled water + Tween-80
  T/C: 97 % of control
endpoint: mean survival time, dose: 25.0 mg/kg/injection, schedule: Q04DX003 (ip), vehicle: distilled water + Tween-80
  T/C: 112 % of control
endpoint: mean survival time, dose: 50.0 mg/kg/injection, schedule: Q04DX003 (ip), vehicle: distilled water + Tween-80
  T/C: 98 % of control

## C=CCC1(C)C(=O)CCC2=C1CCc1c(OC)cccc12 (stereo not drawn)
[4]
  T/C: 90 % of control
[5]
  T/C: 90 % of control
endpoint: mean survival time, dose: 400.0 mg/kg/injection, schedule: Q01DX001 (ip), vehicle: saline
  T/C: 92 % of control

## Oc1ccc(Cl)cc1Sc1cc(Cl)ccc1O
endpoint: mean survival time, dose: 100.0 mg/kg/injection, schedule: Q04DX003 (ip), vehicle: other
  T/C: 108 % of control

## O=C(O)/C=N/NS(=O)(=O)c1ccc(Cl)cc1
endpoint: mean survival time, dose: 12.5 mg/kg/injection, schedule: Q04DX003 (ip), vehicle: other
  T/C: 97 % of control
endpoint: mean survival time, dose: 25.0 mg/kg/injection, schedule: Q04DX003 (ip), vehicle: other
  T/C: 105 % of control
endpoint: mean survival time, dose: 50.0 mg/kg/injection, schedule: Q04DX003 (ip), vehicle: other
  T/C: 118 % of control and 122 % of control
endpoint: mean survival time, dose: 200.0 mg/kg/injection, schedule: Q04DX003 (ip), vehicle: other
  T/C: 174 % of control

## NC(N)=NC(=S)Nc1ccccc1
endpoint: mean survival time, dose: 100.0 mg/kg/injection, schedule: Q01DX001 (ip), vehicle: saline with Tween-80
  T/C: 118 % of control
endpoint: mean survival time, dose: 200.0 mg/kg/injection, schedule: Q01DX001 (ip), vehicle: saline with Tween-80
  T/C: 103 % of control
endpoint: mean survival time, dose: 400.0 mg/kg/injection, schedule: Q01DX001 (ip), vehicle: saline with Tween-80
  T/C: 118 % of control

## O=C(O)c1[nH]c(=O)[nH]c(=O)c1F
endpoint: mean survival time, dose: 1.25 mg/kg/injection, schedule: Q01DX009 (ip), vehicle: saline
  T/C: 101 % of control and 109 % of control
endpoint: mean survival time, dose: 2.5 mg/kg/injection, schedule: Q01DX007 (ip), vehicle: Klucel (hydroxypropylcellulose) (HPC)
  T/C: 119 % of control
endpoint: mean survival time, dose: 2.5 mg/kg/injection, schedule: Q01DX009 (ip), vehicle: saline
  T/C: 123 % of control
endpoint: mean survival time, dose: 2.5 mg/kg/injection, schedule: Q03DX003 (ip), vehicle: Klucel (hydroxypropylcellulose) (HPC)
  T/C: 110 % of control
endpoint: mean survival time, dose: 2.5 mg/kg/injection, schedule: Q04DX003 (ip), vehicle: Klucel (hydroxypropylcellulose) (HPC)
  T/C: 103 % of control
endpoint: mean survival time, dose: 5.0 mg/kg/injection, schedule: Q01DX007 (ip), vehicle: Klucel (hydroxypropylcellulose) (HPC)
  T/C: 165 % of control
endpoint: mean survival time, dose: 5.0 mg/kg/injection, schedule: Q01DX009 (ip), vehicle: saline
  T/C: 168 % of control
endpoint: mean survival time, dose: 5.0 mg/kg/injection, schedule: Q03DX003 (ip), vehicle: Klucel (hydroxypropylcellulose) (HPC)
  T/C: 122 % of control
endpoint: mean survival time, dose: 5.0 mg/kg/injection, schedule: Q04DX003 (ip), vehicle: Klucel (hydroxypropylcellulose) (HPC)
  T/C: 112 % of control
endpoint: mean survival time, dose: 10.0 mg/kg/injection, schedule: Q01DX007 (ip), vehicle: Klucel (hydroxypropylcellulose) (HPC)
  T/C: 119 % of control
endpoint: mean survival time, dose: 10.0 mg/kg/injection, schedule: Q04DX003 (ip), vehicle: Klucel (hydroxypropylcellulose) (HPC)
  T/C: 117 % of control

## CN(C)C1CCc2ccc3ccccc3c2C1=O (stereo not drawn)
endpoint: mean survival time, dose: 12.5 mg/kg/injection, schedule: Q01DX009 (ip), vehicle: saline
  T/C: 105 % of control
endpoint: mean survival time, dose: 25.0 mg/kg/injection, schedule: Q01DX009 (ip), vehicle: saline
  T/C: 102 % of control
endpoint: mean survival time, dose: 50.0 mg/kg/injection, schedule: Q01DX009 (ip), vehicle: saline
  T/C: 105 % of control

## CCOc1cccc(Cc2cn(Cc3cccc(NC(=O)c4ccc(S(=O)(=O)F)cc4)c3)c(=O)[nH]c2=O)c1
[2]
  T/C: 100 % of control
[3]
  T/C: 97 % of control

## C=C(Br)C(=O)O
[4]
  T/C: 93 % of control
[5]
  T/C: 98 % of control

## CC1(C(=O)O)OCCO1
endpoint: mean survival time, dose: 100.0 mg/kg/injection, schedule: Q04DX003 (ip), vehicle: saline
  T/C: 97 % of control
endpoint: mean survival time, dose: 200.0 mg/kg/injection, schedule: Q04DX003 (ip), vehicle: saline
  T/C: 103 % of control
endpoint: mean survival time, dose: 400.0 mg/kg/injection, schedule: Q04DX003 (ip), vehicle: saline
  T/C: 96 % of control

## CCCCOC(=O)C(C)(C)O
[9]
  T/C: 96 % of control
endpoint: mean survival time, dose: 200.0 mg/kg/injection, schedule: Q04DX003 (ip), vehicle: saline with Tween-80
  T/C: 102 % of control
endpoint: mean survival time, dose: 400.0 mg/kg/injection, schedule: Q04DX003 (ip), vehicle: saline with Tween-80
  T/C: 98 % of control

## C#CCNC1=C(C)C(=O)C2=C(C1=O)[C@H](COC(N)=O)[C@]1(OC)[C@H]3[C@@H](CN21)N3C (stereo partly drawn)
endpoint: mean survival time, dose: 3.0 mg/kg/injection, schedule: Q01DX001 (ip), vehicle: distilled water + Tween-80
  T/C: 97 % of control
endpoint: mean survival time, dose: 6.0 mg/kg/injection, schedule: Q01DX001 (ip), vehicle: distilled water + Tween-80
  T/C: 95 % of control
endpoint: mean survival time, dose: 12.0 mg/kg/injection, schedule: Q01DX001 (ip), vehicle: distilled water + Tween-80
  T/C: 101 % of control
endpoint: mean survival time, dose: 24.0 mg/kg/injection, schedule: Q01DX001 (ip), vehicle: distilled water + Tween-80
  T/C: 110 % of control
endpoint: mean survival time, dose: 48.0 mg/kg/injection, schedule: Q01DX001 (ip), vehicle: distilled water + Tween-80
  T/C: 118 % of control

— PubChem BioAssay AID256 (DTP/NCI, 2004)
